Experimental findings from US8530513B1, “Pharmaceutical uses of diterpene excavatolide B from a coral or an analogue thereof” (National Sun Yat-Sen University, priority 2012, dated 2013) are described below.

The subject of assay [1] is NF-κB. The assay can be described thus: TPA-induced NF-κB phosphorylation in mouse skin, western blot. It counts as in vivo. As to conditions: topical for 2 h after TPA. As for the experimental part:
(§1) Shaven abdominal skins of female C57BL/6JNarl mice were not treated or topically treated with vehicle (acetone, 200 μl/site) or TPA (10 nmol in 200 μl acetone/site) at indicated time points or treated first with TPA for 10 min, then with the indicated concentrations of BrD1 at the indicated time points. Abdominal skin samples were collected, homogenated and lysed to prepare total proteins. Protein samples were subsequently resolved by SDS-PAGE using a gradient gel. The resolved proteins were transferred to a PVDF Immobilon-P membrane (Millipore, Bedford, Calif.), and the membrane was blocked with 5% non-fat dry milk in PBST buffer (phosphate-buffered saline (PBS) containing 0.1% Tween 20) for 60 minutes at room temperature. The membranes were incubated overnight at 4° C. with commercially available antibodies (1:1000 dilutions). Loading of equal amounts of protein was assessed using mouse β-actin. The blots were rinsed three times with PBST buffer for 5 minutes. Washed blots were incubated with HRP-conjugated secondary antibody (1:100,000 dilution), then washed again three times with PBST buffer. […] Quantification of bands was performed using Image J software.
(§2) We therefore evaluated whether BrD1 could interfere with TPA-induced activation of Akt and Erk in inflamed skin. […] We thus determined the phosphorylation level of Akt, Erk, NF-κB and IκBα in skins subjected to different treatments. […]

Assay [2] deals with IL-6. The assay can be described thus: LPS-induced IL-6 expression in mouse bone marrow-derived dendritic cells, ELISA. It counts as cell-based. The note with it: for IL-6 expression in LPS-stimulated dendritic cells: LPS 100 ng/ml plus BrD1 at different concentrations, 24 h. The source says: For mouse bone marrow-derived DCs (BMDCs), five to six-week-old female C57BL/6JNarl mice were purchased from the National Laboratory Animal Center, Taiwan and kept under SPF conditions. BMDCs were generated from bone marrow cells of C57BL/6 mice as described previously (Yin S Y, Wang W H, Wang B X, Aravindaram K, Hwang P I, Wu H M, Yang N S. BMC genomics 2010, 11:612). In brief, bone marrow was isolated from femurs and tibiae which were then flushed with RPMI-1640 medium using a syringe with a 0.45-mm needle on Day 0. Red blood cells in suspension were lysed for […] with ACK lysing buffer (150 mM NH4Cl, 1.0 mM KHCO3, 0.1 mM EDTA). Bone marrow cells were suspended at a density of 1×10^7 cells/30 ml in RPMI-1640 containing 10% FBS, 2 mM L-glutamine, 1% of nonessential amino acids, 100 U/mL penicillin and 100 μg/mL streptomycin supplemented with 20 ng/mL of mGM-CSF in 15-cm dishes at 37° C. with 5% CO2. On day 2, two-thirds of the medium was removed and 30 mL fresh medium with mGM-CSF was added to the cells. On day 5, culture plates were gently swirled and the floating and loosely adherent cells were discarded. Aliquots of 75% culture media were replenished with 20 ng/mL mGM-CSF and 20 ng/mL mIL-4. On day 7, mouse BMDCs (95% pure CD11b and MHC II) were harvested and incubated in RPMI 1640 medium containing 1 mM sodium pyruvate, 0.1 mM nonessential amino acids, 100 U/ml penicillin, 100 μg/ml streptomycin, and supplemented with 10% fetal bovine serum (Invitrogen, Carlsbad, Calif.) for 24 h at 37° C. with or without test chemicals in the presence or absence of LPS (100 ng/ml).
BMDCs were treated with or without test chemicals in the presence or absence of LPS (100 ng/ml) for 24 h at 37° C. Aliquots of supernatants from DC cultures were assayed for IL-6 and TNF-α using commercial ELISA kits (R&D Systems, Minneapolis, Minn.) following the manufacturer's recommendations.
Several studies have reported that the secretion of specific cytokines, including IL-1β, TNF-α and IL-6 by keratinocytes and various immune cells is involved in cutaneous inflammation (Nestle F O, Di Meglio P, Qin J Z, Nickoloff B J. Nature reviews Immunology 2009, 9:679-691; De Vry C G, Valdez M, Lazarov M, Muhr E, Buelow R, Fong T, Iyer S. J Invest Dermatol 2005, 125:473-481; Cumberbatch M, Dearman R J, Kimber I. Immunology 1996, 87:513-518). In order to investigate the anti-inflammatory effect of BrD1 on cytokine expression, mouse bone marrow-derived dendritic cells were used to evaluate the inhibitory effect of BrD1 on LPS-induced expressions of TNF-α and IL-6. In our time-course study for expression of TNF-α and IL-6, after LPS stimulation, a high expression of TNF-α and IL-6 was maintained at 24 h (FIG. 6A). We therefore chose 24 h as the time point at which to assess the expression of TNF-α and IL-6.
(In general: ELISA stands for enzyme-linked immunosorbent assay.)

The subject of assay [3] is Erk1/2. The assay can be described thus: TPA-induced Erk phosphorylation in mouse skin, western blot. It counts as in vivo. As to conditions: topical for 2 h after TPA. How it is done: as §1, §2
Assay [4] concerns Akt. Description: TPA-stimulated Akt phosphorylation in mouse skin, western blot. The note with it: topical for 2 h after TPA. The format is in vivo. As for the experimental part:
as §1, §2
A general note: A western blot detects proteins with antibodies after separation by electrophoresis.

For `CCCC(=O)O[C@H]1C/C(C)=C\[C@@H]2OC(=O)[C@]3(C)O[C@]23[C@@H](OC(C)=O)[C@H]2[C@@H](C)[C@@H](O)C[C@H](OC(C)=O)[C@]2(C)[C@H]1OC(C)=O` [BrD1, excavatolide B], the “phosphorylation of NF-κB” value in assay [1] was “effectively inhibited the phoshporylation of NF-κB”; in assay [1] (listed as excavatolide B), “effectively inhibits the phoshporylation of NF-κB”. In addition, in assay [2] (DCs co-treated with LPS and BrDs at 20 μM), the “inhibition of LPS-induced IL-6 expression (structure-activity relationship)” value is “significantly inhibited the expression of cytokine IL-6”. Moreover, the “IL-6 expression in LPS-stimulated dendritic cells” value is “strongly inhibited IL-6 expression” in assay [2] and “strongly inhibits IL-6 expression” in assay [2] (listed as Excavatolide B). The “TPA-induced Erk phosphorylation” value in assay [3] was “inhibit TPA-induced Erk phosphorylation only slightly”. For the same compound, the “TPA-stimulated phosphorylation of Akt” value is reported as “significantly inhibited the TPA-stimulated phosphorylation of Akt” in assay [4] and “significantly inhibits the TPA-stimulated phosphorylation of Akt” in assay [4] (listed as excavatolide B).
